# Measurements from US20120130146A1, “CONTINUOUS ADMINISTRATION OF CILENGITIDE IN CANCER TREATMENTS” (Merck Patent GmbH, priority 2009, published 2012).
# Test system: U251 human glioblastoma cells
# Test: Rat orthotopic glioblastoma model radiotherapy, Cilengitide scheduling experiments
# Type: in vivo
# Details: t-4 and t-8 h groups
# Method: NIH mu nude rats are anaesthetized, restrained, and injected intracerebrally 1 mm retro orbitally, 3 mm to the right of the bregma and at a depth of 2.5 mm with 5×10E5 U251 human glioblastoma cells suspended in 10 ul of culture medium, using a #2701 Hamilton syringe fitted with a 26 gauge needle, essentially as previously described (Engebraaten et al., 1999). After 14 days, cilengitide (4 mg/kg) is given as an intraperitoneal bolus in PBS, at various time (8 h, 4 h, 2 h, 1 h) prior to a single treatment with single, collimated, dorsal-ventral beam of 6 MV x-rays, so that 95-100% of the central axis dose of 25 Gy hit the tumor volume (Kim et al., 1999). Each of the 7 subsequent days the animals also received an identical i.p. bolus of cilengitide. The animals are maintained under ad libitum food and drink until they become moribund, or are sampled for tissue analysis (in the t-4 and t-8 h groups, where the animals are healthy past 230 days post tumor injection). A Kaplan-Meier survival curve is calculated and plotted (FIG. 1) from the raw data (Table 1). All animals in the RT monotherapy group died by 120 d.
smiles,measurement,value
"CC(C)[C@H]1C(=O)N[C@@H](CCCN=C(N)N)C(=O)NCC(=O)N[C@@H](CC(=O)O)C(=O)N[C@H](Cc2ccccc2)C(=O)N1C [Cilengitide, cyclo-(Arg-Gly-Asp-DPhe-NMeVal)]","animals healthy, days post tumor injection",> 230 days
